Results on 52 compounds are retold here after PubChem BioAssay AID1996.

Each structure is given as a SMILES string. ≈ marks a conversion by molar mass, not a printed value.

For this data set the following is noted: buffer; pH 7.4; 200.0 µM.
Regarding `O=C(CNc1cccc(S(=O)(=O)N2CCCC2)c1)Nc1cccc(C(F)(F)F)c1`, the kinetic solubility (as a rule, the concentration staying in solution when a stock, usually in DMSO, is diluted into the medium) was found to be 21.1 µg/mL (≈ 49.4 µM).

As for `CCc1ccc(C(C)NC(=O)c2ccncc2)cc1` (configuration not stated), the solubility (kinetic) is over 38.1 µg/mL.

As to `N/C(=N\OC(=O)c1cccs1)c1cccc(Br)c1`, the kinetic solubility amounted to 8.5 µg/mL (≈ 26.1 µM).

As to `Cc1cc(C)c2nc(C)cc(Nc3ccc(C(=O)NCCO)cc3)c2c1`, the kinetic solubility turned out to be 35.5 µg/mL (≈ 102 µM). Compared with the last compound, the solubility kinetic is about 4.2-fold higher.

As to `CC(C)(C)c1ccc(C(=O)NC(=S)N2CCCC2)cc1`, the kinetic solubility worked out at 7.2 µg/mL (≈ 24.8 µM).

`Cc1ccsc1C(=O)OCc1cc(=O)n2ccsc2n1` had a kinetic solubility of 6.3 µg/mL (≈ 20.6 µM).

`COc1ccc(NC(=O)CC2(CC(=O)O)CCCC2)cc1` had a solubility (kinetic) of 43.6 µg/mL (≈ 150 µM). This solubility kinetic lies about 6.9-fold higher than the previous one.

As for `CN(C)CC(C)(C)CNc1ccc(S(=O)(=O)N2CCCC2)cn1`, the kinetic solubility was over 51.1 µg/mL.

For the compound `COc1ccc(NC(=O)Cc2cccs2)cc1S(=O)(=O)N1CCCCC1`, the kinetic solubility was 44.4 µg/mL (≈ 113 µM).

For the compound `CN=C1S/C(=C\c2ccc(SC)cc2)C(=O)N1C`, the solubility (kinetic) was found to be 1.4 µg/mL (≈ 5.03 µM).

Regarding `COc1ccc(CN2CCCN(C)CC2)c(OC)c1C`, the solubility (kinetic) amounted to 26.8 µg/mL (≈ 96.3 µM).

`CC(C)N(Cc1ccccc1)C(=O)CCc1ccccc1` had a kinetic solubility of 36.8 µg/mL (≈ 131 µM).

Take `COc1ccc(NC(=O)Nc2cccc(C)n2)c(OC)c1`: the solubility (kinetic) was under 0.2 µg/mL.

Compound `CCOc1ccc(N2CC(C(=O)N3CC(C)OC(C)C3)CC2=O)cc1` (configuration not stated) returned a solubility (kinetic) of over 52 µg/mL.

On to `O=C(Nc1cccc(Cl)c1Cl)C1CCCC1`, for which the solubility (kinetic) was determined as 3.9 µg/mL (≈ 15.1 µM).

Regarding `O=[N+]([O-])/C(C(=C(Cl)Cl)N1CCOCC1)=C1\NCCO1`, the kinetic solubility was over 46.5 µg/mL.

The compound `Cc1cccc(C(=O)OCC(=O)N2CC(C)CC(C)C2)c1C` (configuration not stated) yielded a solubility (kinetic) of over 45.5 µg/mL.

`COc1ccc([N+](=O)[O-])cc1NC(=O)c1cccnc1` had a kinetic solubility of 28.8 µg/mL (≈ 105 µM).

In turn, `COc1cc(OC)c(NC(=S)NCc2ccc(F)cc2)cc1Cl` had a solubility (kinetic) of 1 µg/mL (≈ 2.82 µM).

Regarding `CCC(=NCCc1ccc(OC)c(OC)c1)C1=C(O)CC(C)(C)CC1=O`, the solubility (kinetic) was found to be 47.3 µg/mL (≈ 132 µM).

Regarding `COc1cc2c(cc1OC)CN(C(=O)c1ccc3[nH]c(C)c(C)c3c1)CC2`, the kinetic solubility was 6.9 µg/mL (≈ 18.9 µM).

Regarding `Cc1ccc(C)c(OCC(=O)N2CCc3ccccc3C2)c1`, the kinetic solubility came to 22.3 µg/mL (≈ 75.5 µM).

Turning to `O=C(Nc1cc(Cl)ccc1Cl)C1CCCO1` (configuration not stated), the solubility (kinetic) was determined as 28.9 µg/mL (≈ 111 µM).

In the case of `CCc1cc(=O)oc2cc(OCC(=O)N3CCC(C(N)=O)CC3)ccc12`, the kinetic solubility was over 53.8 µg/mL.

Compound `CCOc1ccccc1CNC(=O)CNC(=O)c1cccs1` gave a kinetic solubility of over 47.8 µg/mL.

Turning to `CC1CN(C(=O)COC(=O)c2cccc(S(=O)(=O)N3CCc4ccccc43)c2)CC(C)O1` (configuration not stated), the kinetic solubility stood at 15.3 µg/mL (≈ 33.4 µM).

For `O=C(COc1ccccc1)Nc1ccc(F)cc1`, the kinetic solubility is over 36.8 µg/mL.

With `CC12CCC(C(=O)Nc3cc(F)ccc3F)(CC1=O)C2(C)C` (configuration not stated), the kinetic solubility was determined as 32 µg/mL (≈ 104 µM).

As to `CCc1nccn1Cc1cc(C=O)ccc1OC.Cl`, the solubility (kinetic) was over 42.1 µg/mL.

Regarding `O=C(Nc1cccc(Cl)c1)OCCOc1ccccc1`, the kinetic solubility was under 0.6 µg/mL.

As to `COc1cc(CNCCO)ccc1OCCc1ccccc1`, the solubility (kinetic) was over 45.2 µg/mL.

`CC1Cc2ccccc2N1CC(=O)NC(=O)NC1CCCC1` (configuration not stated): the solubility (kinetic) was determined as 6.9 µg/mL (≈ 22.9 µM).

`CCOc1ccc(-n2cnc3sc4c(c3c2=O)CCCC4)cc1` registered a solubility (kinetic) of 0.8 µg/mL (≈ 2.45 µM). Compared with the last compound, the solubility kinetic is about 8.6-fold lower.

Compound `Cc1cccc(Nc2nc(C)cc(C)c2C#N)c1` came in with a kinetic solubility of 0.8 µg/mL (≈ 3.37 µM).

`O=C(Nc1ccccc1)c1ccc2c(c1)OCCCO2` had a solubility (kinetic) of over 40.4 µg/mL.

Compound `O=C(CSC(=S)N1CCCC1)NCCc1ccccc1` came in with a kinetic solubility of over 46.3 µg/mL.

`CCOC(=O)NC(C(Cl)(Cl)Cl)S(=O)(=O)c1ccccc1` (configuration not stated) registered a kinetic solubility of over 54.1 µg/mL.

On to `CC(OC(=O)c1ccc(Br)o1)C(=O)NCC1CCCCC1` (configuration not stated), for which the solubility (kinetic) stood at 10.7 µg/mL (≈ 29.9 µM).

For `CCOC(=O)N1CCC(NC(=O)CCc2ccccc2)CC1`, the kinetic solubility was over 45.7 µg/mL.

Turning to `Cc1cc(OCC(=O)NCCN2CCOCC2)cc(C)c1Cl`, the kinetic solubility is over 49 µg/mL.

For `O=C(CN1CC=C(c2ccccc2)CC1)NC(=O)NC1CCCCC1`, the solubility (kinetic) was found to be 22.1 µg/mL (≈ 64.7 µM).

Take `CN(Cc1ccccc1)C(=O)COC(=O)c1ccc(Br)o1`: the kinetic solubility was over 52.8 µg/mL.

For the compound `CC(OC(=O)CCCC(=O)Nc1ccc(F)cc1)C(=O)c1ccccc1` (configuration not stated), the kinetic solubility stood at 44.7 µg/mL (≈ 125 µM).

Take `CCCCNC1=NCCS1`: the kinetic solubility is over 23.7 µg/mL.

`CCn1c(C(O)c2cc(OC)ccc2OC)nc2ccccc21` (configuration not stated) had a kinetic solubility of over 46.9 µg/mL.

Take `CSc1ncc(C(=O)Nc2ccc(C(C)=O)cc2)c(C)n1`: the solubility (kinetic) was over 45.2 µg/mL.

`Cc1cn(CCC(=O)Nc2ccccc2N2CCOCC2)c2ccccc12`: the kinetic solubility is 27.5 µg/mL (≈ 75.7 µM).

Compound `CN(CC(=O)NC1CCCCCC1)S(=O)(=O)c1cnc[nH]1` returned a kinetic solubility of over 47.2 µg/mL.

Take `CC(=O)N1CCc2ccc(S(=O)(=O)Nc3ccccc3Cl)cc21`: the kinetic solubility turned out to be 39.2 µg/mL (≈ 112 µM).

`CCC(C)c1ccc(NC(=O)C2CC3CCC2C3)cc1` (configuration not stated): the solubility (kinetic) amounted to 1.3 µg/mL (≈ 4.79 µM).

As to `CCOC(=O)CN1C(=O)C(=O)N(Cc2c(C)cc(C)cc2C)C1=O`, the solubility (kinetic) worked out at 14 µg/mL (≈ 42.1 µM).

For `CCCC1NC(C(=O)O)Cc2c1[nH]c1ccccc21` (configuration not stated), the kinetic solubility is 37.3 µg/mL (≈ 144 µM).
